In brackets after ≈: the same amount, converted by molar mass. Records with an inconclusive call do not appear. Activity calls are given as the source filed them. How the calls were made is not given here.
System: M. tuberculosis H37Rv growth inhibition
Experiment: Mycobacterium tuberculosis H37Rv growth inhibition, cell based, confirmatory dose response (AID 1949);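 further: bacteria grown 7 days with compound before Alamar blue readout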

SMILES | IC50
CC(C)(C)c1ccc(C(=O)Nc2ccc(S(=O)(=O)Nc3nccs3)cc2)cc1Br | 1.19 µg/mL (≈ 2.41 µM)
COc1ccc(-c2csc(-c3ccc(OC)c(OC)c3)n2)cc1C | < 0.1 µg/mL
CCCC(=O)N1CCN(c2ccc(NC(=O)c3cc4ccccc4o3)cc2Cl)CC1 | 33.7 µg/mL (≈ 79.1 µM)
O=C(NCc1ccc(Cl)cc1)c1ccccc1-c1ccccc1 | 13.2 µg/mL (≈ 41.1 µM)
Cc1cccc(OC(C)C(=O)Nc2ccc([N+](=O)[O-])cc2)c1C (centres undefined) | 3.13 µg/mL (≈ 9.96 µM)
O=C(CSc1ccc(Br)cc1)Nc1ccccc1 | 7.69 µg/mL (≈ 23.9 µM)
CCOC(=O)C(C)Oc1ccc2c(=O)c(-c3ccc(Br)cc3)coc2c1 (centres undefined) | > 50 µg/mL (inactive)
CCOC(=O)COc1ccc2c(C)c(CC(=O)OC)c(=O)oc2c1 | 35 µg/mL (≈ 105 µM)
Cc1ccc(OCC(=O)c2ccccc2)cc1C | 4.92 µg/mL (≈ 20.5 µM)
O=C(COc1cccc2ccccc12)c1ccc(Cl)cc1 | 34 µg/mL (≈ 115 µM)
CCCCC(=O)NC(=S)NNC(=O)c1ccc(C)c(Br)c1 | 2.79 µg/mL (≈ 7.49 µM)
CC(C)(C)OC(=O)CS(=O)c1ccc(S(=O)(=O)C(F)(F)F)cc1[N+](=O)[O-] (centres undefined) | 2.14 µg/mL (≈ 5.13 µM)
CN1CCN(c2ccc(NC(=O)c3ccc(-c4ccc(Cl)cc4)o3)cc2)CC1 | 38 µg/mL (≈ 96 µM)
CC(C)(C)c1ccc(OCCN2C(=O)C(=O)c3cc(Br)ccc32)cc1 | 1.49 µg/mL (≈ 3.7 µM)
Cc1ccc(-c2nc(NC(=O)CO)cs2)cc1 | 0.36 µg/mL (≈ 1.45 µM)
CSc1nsc(SCC(=O)N2CCN(c3ccccc3)CC2)n1 | 0.35 µg/mL (≈ 0.955 µM)
COc1ccccc1C(=O)NNC(=S)NC(=O)c1cccs1 | 0.15 µg/mL (≈ 0.447 µM)
O=C(CSc1ccc(Br)cc1)Nc1cccc(Cl)c1 | 1.51 µg/mL (≈ 4.23 µM)
CCOC(=O)COc1ccc2c(=O)c(Oc3ccccc3Cl)coc2c1 | 2.08 µg/mL (≈ 5.55 µM)
CC1CCc2c(sc3ncn(C(C)C(=O)OCc4ccccc4)c(=O)c23)C1 (centres undefined) | 1.53 µg/mL (≈ 4 µM)
COc1ccc(F)cc1CN1CCN(c2ncnc3scc(-c4ccc(F)cc4)c23)CC1 | > 50 µg/mL (inactive)
N#CC1=C(SCC(=O)Nc2ccccc2C(=O)c2ccccc2)NC(=O)CC1c1ccccc1F (centres undefined) | 3.1 µg/mL (≈ 6.38 µM)
CSc1ncc(C(=O)Nc2cccc(C(F)(F)F)c2)cn1 | < 0.1 µg/mL
O=C(CC1(O)C(=O)N(CCc2ccccc2)c2ccc(Cl)cc21)c1ccncc1 (centres undefined) | 6.03 µg/mL (≈ 14.8 µM)

SMILES | IC50
Cc1ccc(OC(=O)c2ccc3nc(C)sc3c2)cc1 | > 50 µg/mL (inactive)
COC(=O)COc1ccc(-c2ccccc2)cc1 | 0.22 µg/mL (≈ 0.908 µM)
Cc1cc(Nc2ccc(Cl)cc2)nc(NCc2ccccc2)n1 | 1.34 µg/mL (≈ 4.13 µM)
OCc1nc2ccccc2n1CC(O)COc1ccc(OCc2ccccc2)cc1 (centres undefined) | 4.83 µg/mL (≈ 11.9 µM)
O=C(Nc1ccc2ccccc2c1)Nc1ccc2snnc2c1 | 0.9 µg/mL (≈ 2.81 µM)
CCOC(=O)c1c(CSc2ccccc2)n(-c2ccccc2)c2ccc(O)c(CN(C)C)c12 | 1.4 µg/mL (≈ 3.04 µM)
COc1ccc(OCC(=O)Nc2cccc(Cl)c2)cc1 | 2.78 µg/mL (≈ 9.53 µM)
O=C(Nc1cccc2ncccc12)c1ccc([N+](=O)[O-])o1 | 4.28 µg/mL (≈ 15.1 µM)
Cc1ccc(-c2cnc(C)c(-c3ccccc3)c2)nc1-c1ccccc1 | > 50 µg/mL (inactive)
c1ccc(COc2ccc(OCCCCn3ccnc3)cc2)cc1 | 5.37 µg/mL (≈ 16.7 µM)
O=[N+]([O-])c1cccc(NC(=S)Nc2ccc(Cl)c(Cl)c2)c1 | 0.3 µg/mL (≈ 0.877 µM)
Cc1cc(OCCCN2CCCC(C)C2)cc(C(C)C)c1 (centres undefined) | 5.85 µg/mL (≈ 20.2 µM)
Clc1ccc(-c2csc(-c3cccnc3)n2)cc1 | 5.82 µg/mL (≈ 21.3 µM)
CC(NS(=O)(=O)c1cccc(Cl)c1)C(=O)Nc1ccc(Br)cc1F (centres undefined) | 3 µg/mL (≈ 6.89 µM)
CC(C)C(=O)N1CCN(c2ccccc2NC(=O)c2ccc([N+](=O)[O-])o2)CC1 | 1.95 µg/mL (≈ 5.05 µM)
Cc1ccc(NC(CC(=O)c2ccc([N+](=O)[O-])cc2)c2ccccc2)cc1 (centres undefined) | 49.2 µg/mL (≈ 136 µM)
Cc1nc(N2CCN(Cc3ccc4c(c3)OCO4)CC2)nc2c1C(=O)CC(c1ccco1)C2 (centres undefined) | 5.06 µg/mL (≈ 11.3 µM)
Cc1ccc(CNC(=O)c2ccc(C)cc2Cl)cc1 | > 50 µg/mL (inactive)
COc1nc(SC)nc2sc3c(c12)CCC3 | 1.47 µg/mL (≈ 5.82 µM)
N#Cc1ccc(NC(=O)CSc2ccc(Cl)cc2)cc1 | 2.94 µg/mL (≈ 9.71 µM)
CCOC(=O)COc1ccc2cc(-c3nc4ccccc4s3)c(=O)oc2c1 | 1.35 µg/mL (≈ 3.54 µM)
CCOC(=O)c1sc(NC(=O)NC2CCCCC2)cc1C | 0.75 µg/mL (≈ 2.42 µM)
CCSc1nc2ccccc2n1C(=O)c1ccc(S(=O)(=O)N2CCOCC2)cc1 | > 50 µg/mL (inactive)
O=C(Oc1cccc2cccnc12)C(Cc1ccccc1)N1C(=O)C2C3CCC(C3)C2C1=O (centres undefined) | 2.76 µg/mL (≈ 6.27 µM)

SMILES | IC50
O=c1c2ccccc2nc(/C=C/c2ccc([N+](=O)[O-])o2)n1CCCO | < 0.1 µg/mL
CCCCc1ccc(NC(=O)c2cc3cc(Br)cc(OC)c3oc2=O)cc1 | 0.69 µg/mL (≈ 1.6 µM)
O=C(Nc1cccc(C(F)(F)F)c1)C1CCN(C(=O)c2ccc(-c3ccccc3)cc2)CC1 | 5.84 µg/mL (≈ 12.9 µM)
O=C(CC12CC3CC(CC(C3)C1)C2)NC(=S)Nc1cccc(Br)c1 | > 50 µg/mL (inactive)
O=C(COc1cccc(Cl)c1)Nc1ccc(F)c(Cl)c1 | 5.7 µg/mL (≈ 18.1 µM)
CC(C)(C)NCCCCOc1ccc(Cl)cc1C(C)(C)C | 3.77 µg/mL (≈ 12.1 µM)
Cc1ccc(NC(=O)c2ccc(N3CCN(C)CC3)c([N+](=O)[O-])c2)cc1Cl | 2.22 µg/mL (≈ 5.71 µM)
CC(=O)NC(=S)NNC(=O)c1ccc(C(C)(C)C)cc1 | 0.29 µg/mL (≈ 0.988 µM)
C/C(=N/N=C1\NC(=O)C(Cc2cccc(C(F)(F)F)c2)S1)c1ccc(C)cc1 (centres undefined) | 4.95 µg/mL (≈ 12.2 µM)
CCC(C)Oc1ccc(C(=O)NC(=S)Nc2ccc(N3CCOCC3)cc2)cc1 (centres undefined) | 1.22 µg/mL (≈ 2.95 µM)
CCOc1ccc(NC(=S)Nc2ccc3nsnc3c2)cc1 | 0.52 µg/mL (≈ 1.57 µM)
Oc1cccc2ccc(/C=C/c3cccc(F)c3)nc12 | 0.13 µg/mL (≈ 0.49 µM)
Cc1ccc(C(=O)Oc2ccc(Cl)c3cccnc23)cc1[N+](=O)[O-] | 0.94 µg/mL (≈ 2.74 µM)
CN1CCN(c2cc(-c3ccccc3)nc3c(C(F)(F)F)cccc23)CC1 | 1.88 µg/mL (≈ 5.06 µM)
CC(C)(C)n1cnc2cc(NC(=O)c3ccc(Cl)cc3)ccc21 | 0.99 µg/mL (≈ 3.02 µM)
COc1ccccc1NC(=O)CSc1nc2cc3ccccc3cc2[nH]1 | 3.08 µg/mL (≈ 8.47 µM)
Nc1nnc(Sc2ccc([N+](=O)[O-])c3ncccc23)s1 | 3.47 µg/mL (≈ 11.4 µM)
Clc1ccc(Nc2nc(-c3ccccn3)cs2)nc1 | < 0.1 µg/mL
COc1ccc2nc(Nc3nc(C)c(C)c(=O)[nH]3)nc(C)c2c1 | > 50 µg/mL (inactive)
O=C(Nc1ccc(-c2nc3ccccc3c(=O)o2)cc1)C1CCCCC1 | 23.9 µg/mL (≈ 68.7 µM)
Cc1cc(NC(=O)CSc2nnnn2-c2ccccc2C)no1 | 1.41 µg/mL (≈ 4.27 µM)
CCC1CCCCN1C(=S)NC(=O)c1ccc(F)cc1 (centres undefined) | 0.73 µg/mL (≈ 2.48 µM)
CN(C)CCC(=O)c1ccc(Br)cc1 | 0.61 µg/mL (≈ 2.38 µM)
COC(=O)c1ccc(COC(=O)c2ccccc2OC)cc1 | 2.87 µg/mL (≈ 9.56 µM)

SMILES | IC50
Cc1ccc(-c2csc(-c3ccncc3)n2)cc1C | 1.85 µg/mL (≈ 6.95 µM)
CCc1ccc(Oc2nc([N+](=O)[O-])nn2C)cc1 | 1.13 µg/mL (≈ 4.55 µM)
Cc1ccc(-n2cc(-c3ccccc3)c3c(NCc4cccnc4)ncnc32)cc1 | 3.25 µg/mL (≈ 8.3 µM)
COc1ccc(Cl)cc1/C=C/[N+](=O)[O-] | 5.64 µg/mL (≈ 26.4 µM)
Fc1ccc(C2=CC(c3ccc(Br)cc3)n3nnnc3N2)cc1 (centres undefined) | 22.6 µg/mL (≈ 60.7 µM)
O=C1c2cccc3cccc(c23)C(=O)N1CCN1CCN(CCc2ccccc2)CC1 | 23.8 µg/mL (≈ 57.5 µM)
N#CC1=C(SCC(=O)Nc2ccccc2[N+](=O)[O-])NC(=O)CC1c1ccc(F)cc1 (centres undefined) | 6.76 µg/mL (≈ 15.9 µM)
CCCCn1c(=N)n(CC(O)COc2cccc(C)c2)c2ccccc21 (centres undefined) | 6.05 µg/mL (≈ 17.1 µM)
Cn1c(Sc2cnn(-c3ccccc3)c(=O)c2Br)nnc1-c1ccccc1 | 2.81 µg/mL (≈ 6.38 µM)
O=C(Oc1ccccc1)c1cccc(COC(=O)c2cnccn2)c1 | 28 µg/mL (≈ 83.8 µM)
O=C1c2ccccc2C(=O)c2c1nc1n2CCCC1 | > 50 µg/mL (inactive)
Cc1ccccc1NC(=O)c1ccccc1NC(=S)NC(=O)c1cccnc1 | 1.3 µg/mL (≈ 3.33 µM)
CCN(c1ccccc1)c1ccc([N+](=O)[O-])c2nonc12 | 0.17 µg/mL (≈ 0.598 µM)
O=[N+]([O-])c1cc(CN2CCN(c3ccccc3)CC2)c(O)c2ncccc12 | 6.09 µg/mL (≈ 16.7 µM)
CC(C)OC(=O)COc1ccc2c(=O)c(Oc3ccccc3Br)coc2c1 | 13.9 µg/mL (≈ 32.1 µM)
Cc1nn(-c2ccc([N+](=O)[O-])cc2)c(C)c1N1C(=O)c2cccc3cc(Br)cc(c23)C1=O | 0.39 µg/mL (≈ 0.794 µM)
Nc1cc(N)c2cc(-c3ccccc3)oc2c1 | > 50 µg/mL (inactive)
Clc1ccc(OCCCCn2ccnc2)cc1Cl | 2.01 µg/mL (≈ 7.05 µM)
N#Cc1ccc(-c2ccc(OCC(=O)Nc3cccnc3)cc2)cc1 | < 0.1 µg/mL
O=C(Nc1nccs1)c1cc(Cl)cc(Cl)c1 | 10.2 µg/mL (≈ 37.2 µM)
COC(=O)c1ccc(OC(=O)c2ccc(C)c([N+](=O)[O-])c2)cc1 | > 50 µg/mL (inactive)
CCOC(=O)c1c(NC(=O)c2c(F)c(F)c(F)c(F)c2F)sc(C(=O)OC)c1C | 0.37 µg/mL (≈ 0.846 µM)
Cc1ccc(NCCC(=O)c2ccc([N+](=O)[O-])cc2)cc1C | 1.06 µg/mL (≈ 3.55 µM)
O=C(NC(=S)N1CCc2ccccc21)c1ccco1 | 5.64 µg/mL (≈ 20.7 µM)

SMILES | IC50
Nc1cc(Oc2ccc(O)c(N)c2)ccc1O | 6.13 µg/mL (≈ 26.4 µM)
CCCn1c(CNc2ccccc2O)nc2ccccc21 | 0.34 µg/mL (≈ 1.21 µM)
COC(=O)COc1ccc(NC(=O)c2ccccc2Br)cc1 | 1.17 µg/mL (≈ 3.21 µM)
CCC(C)(C)c1ccc(OCCCn2ccnc2)cc1 | 1.92 µg/mL (≈ 7.05 µM)
O=C(Oc1cccc2cccnc12)c1ccccc1Br | 1.36 µg/mL (≈ 4.14 µM)
COC(=O)COc1ccc(NC(=O)c2ccccc2F)cc1 | 0.65 µg/mL (≈ 2.14 µM)
COc1cc2cc(-c3nc4ccccc4[nH]3)c(N)nc2cc1OC | 3.24 µg/mL (≈ 10.1 µM)
COc1ccccc1C(=O)NNC(=S)NC(=O)C1CCCCC1 | 3.02 µg/mL (≈ 9 µM)
CCOC(=O)COc1c(Cl)cc(/C=C(/C#N)c2nc3ccc(OC)cc3[nH]2)cc1Cl | 0.2 µg/mL (≈ 0.448 µM)
Oc1ccccc1CNCCC12CC3CC(CC(C3)C1)C2 | > 50 µg/mL (inactive)
Nc1ncnc(Sc2ncccn2)c1[N+](=O)[O-] | > 50 µg/mL (inactive)
OC(CN1CCCCCC1)CN1c2ccccc2Sc2ccccc21 (centres undefined) | 9.1 µg/mL (≈ 25.7 µM)
COC(=O)COc1ccc2c(=O)c(Oc3ccccc3)c(C(F)(F)F)oc2c1 | 6.6 µg/mL (≈ 16.7 µM)
COC(=O)C(C)Oc1ccc2c(=O)c(Oc3ccccc3Br)coc2c1 (centres undefined) | 2.96 µg/mL (≈ 7.06 µM)
O=C1c2cccc3c([N+](=O)[O-])ccc(c23)C(=O)N1Cc1ccccc1 | 46 µg/mL (≈ 138 µM)
Cc1cc(OCCCn2ccnc2)ccc1C(C)C | 4.44 µg/mL (≈ 17.2 µM)
CCC(C)c1ccccc1OCC(=O)Nc1ccc(Cl)cc1 (centres undefined) | 4.68 µg/mL (≈ 14.7 µM)
Cc1ccc(-c2[nH]c(-c3cc([N+](=O)[O-])ccc3O)nc2-c2ccccc2)cc1 | 5.58 µg/mL (≈ 15 µM)
Cc1c(Cl)ccc(OCCCN2CCCC(C)C2)c1C (centres undefined) | 3.16 µg/mL (≈ 10.7 µM)
O=c1oc(-c2ccccc2)cc(Cl)c1Cl | 2.04 µg/mL (≈ 8.46 µM)
N#Cc1ccc(NC(=O)C23CC4CC(CC(C4)C2)C3)cc1 | 23.7 µg/mL (≈ 84.6 µM)
Cc1cc(O)ccc1Nc1nc(-c2ccccn2)cs1 | 1.42 µg/mL (≈ 5.01 µM)
O=C(Oc1ccccc1)c1cccc(COC(=O)c2cc3ccccc3oc2=O)c1 | 15.8 µg/mL (≈ 39.5 µM)

— PubChem BioAssay AID1949 (Southern Research Institute, 2009)
